Measured values from paper PMC6834145, “Identification of a Novel Oligosaccharide in Maple Syrup as a Potential Alternative Saccharide for Diabetes Mellitus Patients” (International Journal of Molecular Sciences, 2019).

Key:
[1] = biological target: T1, maltase (α-(1-4) glucosidase) from Saccharomyces; test: glucose release from maltose, capillary electrophoresis of PMP derivatives; assay type: biochemical; settings: substrate maltose; citric buffer pH 6.8 or acetate buffer pH 4.5 (text does not assign clearly), 15 min
T1 construct: gene MAL12; commercial enzyme, Sigma-Aldrich Japan
From the text: glucose release from maltose, capillary electrophoresis of PMP derivatives on maltase (α-(1-4) glucosidase) from Saccharomyces

[2] = biological target: T2, Invertase from Candida utilis (Williopsis jadinii, UniProt O94224); test: glucose release from sucrose, capillary electrophoresis of PMP derivatives; assay type: biochemical; settings: substrate sucrose (100 µg), acetate buffer pH 4.5, 15 min
T2 construct: gene INV1; commercial native enzyme, Seikagaku Biobusiness Corporation
T2 sequence (O94224 1-533): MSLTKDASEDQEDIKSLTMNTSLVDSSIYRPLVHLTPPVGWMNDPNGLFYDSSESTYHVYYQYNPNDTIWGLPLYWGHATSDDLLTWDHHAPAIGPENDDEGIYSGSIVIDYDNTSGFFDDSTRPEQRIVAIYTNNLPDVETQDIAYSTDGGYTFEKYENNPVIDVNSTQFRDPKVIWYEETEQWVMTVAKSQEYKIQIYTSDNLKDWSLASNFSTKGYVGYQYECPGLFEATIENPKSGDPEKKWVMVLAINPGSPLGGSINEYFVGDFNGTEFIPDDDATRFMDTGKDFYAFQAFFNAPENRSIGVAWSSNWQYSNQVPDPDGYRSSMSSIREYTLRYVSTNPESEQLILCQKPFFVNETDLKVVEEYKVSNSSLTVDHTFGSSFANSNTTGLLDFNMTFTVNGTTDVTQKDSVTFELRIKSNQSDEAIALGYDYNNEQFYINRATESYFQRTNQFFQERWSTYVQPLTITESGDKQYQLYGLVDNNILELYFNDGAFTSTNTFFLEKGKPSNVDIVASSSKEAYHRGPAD
From the text: glucose release from sucrose, capillary electrophoresis of PMP derivatives on Invertase from Candida utilis

IC50 [1]: 1720 µM
IC50 [2]: 1170 µM
SMILES: OC[C@H]1OC(O)[C@H](O)[C@@H](O)[C@@H]1OC[C@H]1OC(O)(CO)[C@@H](O)[C@@H]1O (some centres unmarked) [maplebiose1]
